Measured values from patent US9023821B2, “Use of MicroRNA for treating diseases associated with a dysfunction of the cilia in multiciliated epithelial cells” (Centre National de la Recherche Scientifique, priority 2009, dated 2015).

Tests used:
[1] = tested on: basal cells and pyramidal cells of the airway epithelium; assay: miRNA expression in sorted basal cells versus pyramidal cells (ciliated + secretory), HTS and Agilent chips; parameters: species or system human; details: for Modulation of expression of the miRNAs in pyramidal cells (323(−)) relative to basal cells 323(+): HTS and Agilent chips; for Intensity of the level of expression in log2 in pyramidal cells (323(−)): pyramidal cells (ciliated + secretory)
Summary of the method: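 Nasal polyp or concha epithelial cells from 3 donors were stained with CD151-PE and anti-tissue factor-FITC for 20 min at 4° C, with DAPI excluding damaged cells. CD151+/TF+ basal and CD151−/TF− ciliated/secretory cells were FACS-sorted; total RNA miRNA profiles came from Agilent chips or high-throughput sequencing.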

[2] = tested on: human airway epithelial cells (HAECs); assay: Agilent miRNA chips, miRNA expression at four stages of differentiation of HAECs; details: for Modulation (ratio of the level of intensity of expression in log2 in two stages of differentiation) measured with the Agilent chips, D7 − D0 / Modulation (ratio of the level of intensity of expression in log2 in two stages of differentiation) measured with the Agilent chips, FC − D7 / Modulation (ratio of the level of intensity of expression in log2 in two stages of differentiation) measured with the Agilent chips, WD − D0 / Modulation (ratio of the level of intensity of expression in log2 in two stages of differentiation) measured with the Agilent chips, WD − FC / Level of intensity of expression in log2 measured with the Agilent chips, D0 / Level of intensity of expression in log2 measured with the Agilent chips, D7 / Level of intensity of expression in log2 measured with the Agilent chips, FC / Level of intensity of expression in log2 measured with the Agilent chips, WD: Table VI; for Level of intensity of expression in log2 measured with the Agilent chips, D0: stage D0; for Level of intensity of expression in log2 measured with the Agilent chips, D7: stage D7; for Level of intensity of expression in log2 measured with the Agilent chips, FC: stage FC; for Level of intensity of expression in log2 measured with the Agilent chips, WD: stage WD; for Modulation (ratio of the level of intensity of expression in log2 at two stages of differentiation), FC − D7 / Modulation (ratio of the level of intensity of expression in log2 at two stages of differentiation), WD − FC: Agilent miRNA chips, Table V
Summary of the method: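 Microarray v2 (866 human + 89 viral miRNAs; miRBase v.12.0). Input: RNA from the same donors as sequencing. Labelling/hybridization per kit protocol. Profiles cross-checked vs sequencing.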

[3] = tested on: human airway epithelial cells (HAECs); assay: High-throughput sequencing (HTS) of miRNAs at four stages of differentiation of HAECs; details: for Modulation (ratio of the level of intensity of expression in log2 in two stages of differentiation) measured by high-throughput sequencing, D7 − D0 / Modulation (ratio of the level of intensity of expression in log2 in two stages of differentiation) measured by high-throughput sequencing, FC − D7 / Modulation (ratio of the level of intensity of expression in log2 in two stages of differentiation) measured by high-throughput sequencing, WD − D0 / Modulation (ratio of the level of intensity of expression in log2 in two stages of differentiation) measured by high-throughput sequencing, WD − FC / Level of intensity of expression in log2 measured by high-throughput sequencing, D0 / Level of intensity of expression in log2 measured by high-throughput sequencing, D7 / Level of intensity of expression in log2 measured by high-throughput sequencing, FC / Level of intensity of expression in log2 measured by high-throughput sequencing, WD: Table VI; for Modulation (ratio of the level of intensity of expression in log2 in two stages of differentiation), D7 − D0 / Modulation (ratio of the level of intensity of expression in log2 in two stages of differentiation), FC − D7 / Modulation (ratio of the level of intensity of expression in log2 in two stages of differentiation), WD − FC / Abundance (%), D0 / Abundance (%), D7 / Abundance (%), FC / Abundance (%), WD: HTS; for Abundance (%), D0: ALI-D0; for Abundance (%), D7: ALI-D7; for Abundance (%), FC: ALI-FC; for Abundance (%), WD: ALI-WD; for Level of intensity of expression in log2 At the differentiated stage (WD) measured in HTS: healthy human airway epithelial tissue; for Level of intensity of expression in log2 measured by high-throughput sequencing, D0: stage D0; for Level of intensity of expression in log2 measured by high-throughput sequencing, D7: stage D7; for Level of intensity of expression in log2 measured by high-throughput sequencing, FC: stage FC; for Level of intensity of expression in log2 At the differentiated stage (WD) measured in HTS / Level of intensity of expression in log2 measured by high-throughput sequencing, WD: stage WD
Summary of the method: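 Reads per 5p and 3p strand scaled to 10^6 sequences, then to percentage abundance; linear model plus empirical Bayes normalization. Retained miRNAs exceeded 1% of total in at least one condition, with |Log2 Ratio| below 0.5 and adjusted P-value below 0.05.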

| Substance | Modulation of expression of the miRNAs in pyramidal cells (323(−)) relative to basal cells 323(+) [1] | Intensity of the level of expression in log2 in basal cells (323(+)) [1] [log2] | Intensity of the level of expression in log2 in pyramidal cells (323(−)) [1] [log2] | Modulation (ratio of the level of intensity of expression in log2 in two stages of differentiation) measured with the Agilent chips, D7 − D0 [2] [log2] | Modulation (ratio of the level of intensity of expression in log2 in two stages of differentiation) measured with the Agilent chips, FC − D7 [2] [log2] | Modulation (ratio of the level of intensity of expression in log2 in two stages of differentiation) measured with the Agilent chips, WD − D0 [2] [log2] | Modulation (ratio of the level of intensity of expression in log2 in two stages of differentiation) measured with the Agilent chips, WD − FC [2] [log2] | Level of intensity of expression in log2 measured with the Agilent chips, D0 [2] [log2] | Level of intensity of expression in log2 measured with the Agilent chips, D7 [2] [log2] | Level of intensity of expression in log2 measured with the Agilent chips, FC [2] [log2] | Level of intensity of expression in log2 measured with the Agilent chips, WD [2] [log2] | Modulation (ratio of the level of intensity of expression in log2 in two stages of differentiation) measured by high-throughput sequencing, D7 − D0 [3] [log2] | Modulation (ratio of the level of intensity of expression in log2 in two stages of differentiation) measured by high-throughput sequencing, FC − D7 [3] [log2] | Modulation (ratio of the level of intensity of expression in log2 in two stages of differentiation) measured by high-throughput sequencing, WD − D0 [3] [log2] | Modulation (ratio of the level of intensity of expression in log2 in two stages of differentiation) measured by high-throughput sequencing, WD − FC [3] [log2] | Level of intensity of expression in log2 At the differentiated stage (WD) measured in HTS [3] [log2] | Level of intensity of expression in log2 measured by high-throughput sequencing, D0 [3] [log2] | Level of intensity of expression in log2 measured by high-throughput sequencing, D7 [3] [log2] | Level of intensity of expression in log2 measured by high-throughput sequencing, FC [3] [log2] | Level of intensity of expression in log2 measured by high-throughput sequencing, WD [3] [log2] | also measured |
| --- | --- | --- | --- | --- | --- | --- | --- | --- | --- | --- | --- | --- | --- | --- | --- | --- | --- | --- | --- | --- | --- |
| hsa-miR-29a: human miRNA, SEQ ID No. 31 (UAGCACCAUCUGAAAUCGGUUA; expressed or natural sequence; listed as Homo sapiens) | −2.95 | 11.09 | 8.14 | 0.17 | −0.71 | −0.38 | 0.16 | 11.23 | 11.40 | 10.69 | 10.85 | −1.34 | −0.11 | −1.43 | 0.02 | 14.53 | 16.24 | 14.90 | 14.79 | 14.81 | Modulation (ratio of the level of intensity of expression in log2 in two stages of differentiation), D7 − D0 [3]: −1.34 log2; Modulation (ratio of the level of intensity of expression in log2 in two stages of differentiation), FC − D7 [3]: −0.11 log2; Modulation (ratio of the level of intensity of expression in log2 in two stages of differentiation), WD − FC [3]: 0.02 log2; Abundance (%), D0 [3]: 17.01%; Abundance (%), D7 [3]: 6.72%; Abundance (%), FC [3]: 6.02%; Abundance (%), WD [3]: 4.64% |
| hsa-miR-378: human miRNA, SEQ ID No. 43 (ACUGGACUUGGAGUCAGAAGG; expressed or natural sequence; listed as Homo sapiens) | −2.43 | 4.11 | 1.68 | 3.23 | −0.81 | 2.16 | −0.26 | 4.38 | 7.61 | 6.80 | 6.54 | 2.15 | −0.26 | 1.50 | −0.39 | 11.70 | 10.37 | 12.53 | 12.26 | 11.87 | Modulation (ratio of the level of intensity of expression in log2 in two stages of differentiation), D7 − D0 [3]: 2.15 log2; Modulation (ratio of the level of intensity of expression in log2 in two stages of differentiation), FC − D7 [3]: −0.26 log2; Modulation (ratio of the level of intensity of expression in log2 in two stages of differentiation), WD − FC [3]: −0.39 log2; Abundance (%), D0 [3]: 0.29%; Abundance (%), D7 [3]: 1.30%; Abundance (%), FC [3]: 1.04%; Abundance (%), WD [3]: 0.61% |
| hsa-miR-15a: human miRNA, SEQ ID No. 9 (UAGCAGCACAUAAUGGUUUGUG; expressed or natural sequence; listed as Homo sapiens) | −2.10 | 7.86 | 5.75 | 2.36 | −0.39 | 1.87 | −0.10 | 7.74 | 10.10 | 9.71 | 9.61 | 1.41 | −0.19 | 1.57 | 0.35 | 7.68 | 6.11 | 7.52 | 7.33 | 7.68 | Modulation (ratio of the level of intensity of expression in log2 at two stages of differentiation), FC − D7 [2]: −0.39 log2; Modulation (ratio of the level of intensity of expression in log2 at two stages of differentiation), WD − FC [2]: −0.10 log2 |
| hsa-miR-181a: human miRNA, SEQ ID No. 12 (AACAUUCAACGCUGUCGGUGAGU; expressed or natural sequence; listed as Homo sapiens) | −2.29 | 6.88 | 4.59 | 1.41 | −0.84 | 0.20 | −0.37 | 7.05 | 8.47 | 7.62 | 7.25 | 0.00 | 0.00 | 0.00 | 0.00 | 0.01 | 0.01 | 0.01 | 0.01 | 0.01 | Modulation (ratio of the level of intensity of expression in log2 at two stages of differentiation), FC − D7 [2]: −0.84 log2; Modulation (ratio of the level of intensity of expression in log2 at two stages of differentiation), WD − FC [2]: −0.37 log2 |
